The conditions of data set [1]: reported in literature; cited from earlier work.
The conditions of data set [2]: reported in literature; cited from earlier work. The source holds these as a separate data set.
The subject of data set [3] is TNF-α in human peripheral blood mononuclear cells (hPBMCs). As to the kind of experiment: Inhibitory activity against TNF-α in human peripheral blood mononuclear cells. The format is cell-based. The following applies: PBMC, TNF-α in supernatant, 1 ng/mL LPS, 24 hours, read-out: hPBMC IC50. From the text:
In Vitro Detection of the Inhibitory Activity of Compounds Against TNF-α in Human Peripheral Blood Mononuclear Cells
Experimental objective: to express the anti-inflammatory activity at the cellular level of the test compound based on the level of TNF-α in human peripheral blood mononuclear cells (hPBMCs).
Procedure: • 1. Normal human whole blood was collected into an EDTA anticoagulation tube; • 2. The PBMCs were separated by Ficoll density gradient centrifugation, and then counted. The cell concentration was adjusted to 2×10^6/mL; • 3. To each well of a U-bottomed 96-well plate were added 2×10^5 cells, 1 ng/mL LPS, and DMSO solutions of compound at concentrations of 100 μM, 10 μM, 1 μM, 100 nM, 10 nM, 1 nM, 100 pM and 10 pM, 200 μL per well; • 4. The mixture was incubated for 24 hours, and then the supernatant was collected; • 5. The level of TNF-α in supernatant was detected by ELIZA, Graphpad Prism software was used to fit inhibition curves and IC50 was calculated.

The target in data set [4] is CYP1A2 (Homo sapiens (Human), UniProt P05177). As to the kind of experiment: biochemical. The format is in vitro ADME. On the procedure:
(§1) Inhibitory Effect on the Activity of Isoenzymes (CYP1A2, CYP2C9, CYP2C19, CYP2D6 and CYP3A4) of Human Liver Microsomal Cytochrome P450
(§2) A total of 5 specific probe substrates of 5 isoenzymes of CYP, namely phenacetin (CYP1A2), diclofenac (CYP2C9), (S)-mephenytoin (CYP2C19), dextromethorphan (CYP2D6) and midazolam (CYP3A4) are each co-incubated with human liver microsomes and test compound, and then reduced nicotinamide adenine dinucleotide phosphate (NADPH) was added to initiate the reaction.

Data set [5] addresses CYP2C9 (Homo sapiens (Human), UniProt P11712). As to the kind of experiment: Inhibition of human liver microsomal cytochrome P450 isoenzyme CYP2C9. The format is in vitro ADME. The following applies: human liver microsomes, probe substrate diclofenac. On the procedure: as §1, §2
On the technique in general: Liver microsomes are vesicles of endoplasmic reticulum, rich in cytochrome P450 enzymes.

For data set [6], the target named is CYP2C19 (Homo sapiens (Human), UniProt P33261). As to the kind of experiment: Inhibition of human liver microsomal cytochrome P450 isoenzyme CYP2C19. The format is in vitro ADME. To be noted: human liver microsomes, probe substrate (S)-mephenytoin. As to the method: as §1, §2
Data set [7] has as its target CYP2D6 (Homo sapiens (Human), UniProt P10635). The data set is described as follows: Inhibition of human liver microsomal cytochrome P450 isoenzyme CYP2D6. The format is in vitro ADME. The following applies: human liver microsomes, probe substrate dextromethorphan. On the procedure: as §1, §2
The target of data set [8] is CYP3A4 (Homo sapiens (Human), UniProt P08684). The data set is described as follows: Inhibition of human liver microsomal cytochrome P450 isoenzyme CYP3A4. The format is in vitro ADME. The following applies: human liver microsomes, probe substrate midazolam. As to the method: as §1, §2
A short description of data set [9]: Pharmacokinetic experiment in beagle dogs. The format is in vivo. To be noted: male, dog, plasma. On the procedure: Pharmacokinetic Experiment in Beagle Dogs
In this study, male beagle dogs were selected as test animals, and liquid chromatography-tandem mass spectrometry (LC-MS/MS) method was used for quantitatively measuring the drug concentration in plasma of beagle dogs at different time points after intravenous injection or oral administration of compound WX036 so as to evaluate the pharmacokinetic characteristics of the compound WX036 in beagle dogs.
The clear solution of compound WX036 was injected into two 10-12 kg beagle dogs via the cephalic vein or saphenous vein, and the clear solution of test compound was administered intragastrically to two 10-12 kg beagle dogs (overnight fasted). The animals were all subjected to approximately 500 μL of blood collection each time from peripheral veins at 0.0333, 0.0833, 0.25, 0.5, 1, 2, 4, 6, 8, and 24 hours post-dose, and the blood was transferred into commercial centrifuge tubes containing 0.85-1.15 mg of K2 EDTA*2H2O anticoagulant, and plasma was taken by centrifugation at 3000 g for 10 minutes at 4° C. The plasma concentration was measured by LC-MS/MS method, and the relevant pharmacokinetic parameters were calculated by WinNonlin™ Version 6.3 (Pharsight, Mountain View, CA) pharmacokinetic software using non-compartmental model linear logarithmic trapezoid method.

[10] abbreviates: intravenous injection 0.5 mg/kg.

Chain of CYP1A2 (P05177 whole entry): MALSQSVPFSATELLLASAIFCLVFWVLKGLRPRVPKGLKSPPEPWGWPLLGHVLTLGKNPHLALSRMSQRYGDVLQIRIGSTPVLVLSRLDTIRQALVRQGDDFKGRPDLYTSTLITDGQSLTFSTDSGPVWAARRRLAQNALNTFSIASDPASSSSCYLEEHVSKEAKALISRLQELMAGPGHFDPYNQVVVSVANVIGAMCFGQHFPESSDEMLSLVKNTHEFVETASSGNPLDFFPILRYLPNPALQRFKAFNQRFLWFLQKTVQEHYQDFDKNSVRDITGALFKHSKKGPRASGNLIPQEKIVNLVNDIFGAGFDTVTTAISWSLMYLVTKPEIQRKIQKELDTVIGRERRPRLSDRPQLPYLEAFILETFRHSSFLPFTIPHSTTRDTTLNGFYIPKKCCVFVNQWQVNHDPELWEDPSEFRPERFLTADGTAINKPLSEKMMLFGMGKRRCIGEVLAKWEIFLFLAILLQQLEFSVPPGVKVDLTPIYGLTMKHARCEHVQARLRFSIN
Chain of CYP2C19 (P33261 whole entry): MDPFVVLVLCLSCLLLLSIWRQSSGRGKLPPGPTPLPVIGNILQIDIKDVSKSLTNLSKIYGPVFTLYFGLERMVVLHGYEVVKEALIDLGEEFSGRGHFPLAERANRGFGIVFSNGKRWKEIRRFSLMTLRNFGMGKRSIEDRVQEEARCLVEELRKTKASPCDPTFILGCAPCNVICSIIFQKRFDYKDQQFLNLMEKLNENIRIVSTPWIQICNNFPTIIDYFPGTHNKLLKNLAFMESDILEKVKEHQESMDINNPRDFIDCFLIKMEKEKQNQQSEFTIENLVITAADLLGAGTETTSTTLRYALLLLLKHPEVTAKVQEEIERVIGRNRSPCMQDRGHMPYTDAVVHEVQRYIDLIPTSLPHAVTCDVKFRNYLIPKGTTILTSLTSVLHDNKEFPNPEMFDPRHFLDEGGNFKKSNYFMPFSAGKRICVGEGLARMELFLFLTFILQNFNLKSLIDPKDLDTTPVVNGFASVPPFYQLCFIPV
Chain of CYP3A4 (P08684 whole entry): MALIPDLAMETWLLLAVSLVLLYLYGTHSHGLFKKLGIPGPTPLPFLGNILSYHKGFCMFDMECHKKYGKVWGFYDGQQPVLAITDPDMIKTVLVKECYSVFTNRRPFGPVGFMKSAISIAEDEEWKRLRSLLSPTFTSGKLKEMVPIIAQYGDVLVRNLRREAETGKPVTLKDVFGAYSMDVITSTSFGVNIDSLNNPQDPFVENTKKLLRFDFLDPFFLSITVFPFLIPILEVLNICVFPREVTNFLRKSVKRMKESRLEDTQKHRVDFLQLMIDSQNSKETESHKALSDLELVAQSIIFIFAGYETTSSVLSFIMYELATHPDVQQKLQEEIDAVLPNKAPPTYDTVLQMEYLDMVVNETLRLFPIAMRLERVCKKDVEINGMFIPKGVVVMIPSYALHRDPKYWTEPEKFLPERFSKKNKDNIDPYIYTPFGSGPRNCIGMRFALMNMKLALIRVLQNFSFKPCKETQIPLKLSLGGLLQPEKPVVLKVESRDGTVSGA
Chain of CYP2D6 (P10635 whole entry): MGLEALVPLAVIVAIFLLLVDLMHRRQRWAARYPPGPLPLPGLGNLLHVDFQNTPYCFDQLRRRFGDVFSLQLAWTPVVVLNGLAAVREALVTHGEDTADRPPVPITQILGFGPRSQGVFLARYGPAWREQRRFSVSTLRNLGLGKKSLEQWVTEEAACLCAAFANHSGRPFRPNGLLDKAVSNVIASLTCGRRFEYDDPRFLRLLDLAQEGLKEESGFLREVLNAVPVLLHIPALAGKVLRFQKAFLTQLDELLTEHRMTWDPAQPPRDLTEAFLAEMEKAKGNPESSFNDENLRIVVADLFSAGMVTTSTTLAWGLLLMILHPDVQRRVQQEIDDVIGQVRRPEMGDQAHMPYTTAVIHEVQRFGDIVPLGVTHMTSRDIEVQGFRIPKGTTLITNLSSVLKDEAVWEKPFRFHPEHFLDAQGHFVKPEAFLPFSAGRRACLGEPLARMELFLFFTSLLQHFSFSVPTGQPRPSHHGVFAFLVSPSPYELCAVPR
Chain of CYP2C9 (P11712 whole entry): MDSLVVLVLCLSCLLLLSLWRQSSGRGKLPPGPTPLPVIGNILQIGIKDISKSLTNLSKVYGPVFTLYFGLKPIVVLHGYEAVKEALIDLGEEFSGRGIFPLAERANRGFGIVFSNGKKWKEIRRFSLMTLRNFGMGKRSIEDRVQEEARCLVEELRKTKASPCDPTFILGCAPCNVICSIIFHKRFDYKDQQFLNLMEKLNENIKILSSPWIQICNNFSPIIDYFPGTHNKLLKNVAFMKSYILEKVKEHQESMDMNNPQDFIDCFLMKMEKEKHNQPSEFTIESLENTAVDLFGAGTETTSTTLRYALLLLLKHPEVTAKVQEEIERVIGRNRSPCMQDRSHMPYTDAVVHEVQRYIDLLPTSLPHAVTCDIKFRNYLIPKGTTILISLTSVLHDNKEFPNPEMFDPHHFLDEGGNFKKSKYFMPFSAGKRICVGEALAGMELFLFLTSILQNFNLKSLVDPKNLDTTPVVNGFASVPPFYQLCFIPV

`COc1cc2c(cc1OC)-c1c/c(=N\c3c(C)cc(C)cc3C)n(CCNC(N)=O)c(=O)n1CC2` [RPL554]: the solubility entry in data set [1] is reported as “poor”. The plasma clearance result in data set [2] is on record as “high”.

`COc1cc2c(cc1OC)-c1cc(Oc3c(C(C)C)cccc3C(C)C)nc(=O)n1CC2` [RPL565]: in [1], the solubility result is given as “poor”. Moreover, the plasma clearance result in [2] is “high”.

Broadly, the IC50 is the concentration needed to halve the response being measured. With `CCOc1cc2c(cc1OC)-c1c/c(=N\c3c(C)cc(C)cc3C)n(CCNc3nc[nH]n3)c(=O)n1CC2` [WX003], the half-maximal inhibitory concentration (IC50) in data set [3] was determined as 3.1 nM.

Consider `CCOc1cc2c(cc1OC)-c1c/c(=N\c3c(C)cc(C)cc3C)n(CCNc3nc[nH]n3)c(=O)n1CCC2` [WX004], for which the half-maximal inhibitory concentration (IC50) in data set [3] stood at 0.33 nM.

With `CCOc1cc2c(cc1OC)-c1c/c(=N\c3c(C)cc(C)cc3C)n(CCNC(=O)c3nnc[nH]3)c(=O)n1CC2` [WX015], the IC50 in [3] came to 0.36 nM.

For the molecule `CCOc1cc2c(cc1OC)-c1c/c(=N\c3c(C)cc(C)cc3C)n(CCNC(=O)c3cnn[nH]3)c(=O)n1CC2` [WX016], in data set [3], the concentration for half-maximal inhibition (IC50) worked out at 2.8 nM.

As for `CCOc1cc2c(cc1OC)-c1c/c(=N\c3c(C)cc(C)cc3C)n(CCNC(=O)c3ccn[nH]3)c(=O)n1CC2` [WX018], in data set [3], the concentration for half-maximal inhibition (IC50) is 0.09 nM.

On to `CCOc1cc2c(cc1OC)-c1c/c(=N\c3c(C)cc(C)cc3C)n(CCNC(=O)c3[nH]nnc3OC)c(=O)n1CC2` [WX026], for which the half-maximal inhibitory concentration (IC50) in data set [4] stood at 50 µM; in data set [5], 20 µM; in [6], 50 µM; in [7], 50 µM; in data set [8], 16 µM.

What is called clearance is a measure of how efficiently the substance is removed, as volume per time. One may read the half-life as the time in which the quantity being followed falls by half. By bioavailability is commonly meant dose-corrected exposure relative to a reference, in per cent. Consider `CCOc1cc2c(cc1OC)-c1c/c(=N\c3c(C)cc(C)cc3C)n(CCNC(=O)c3c(O)nnn3C)c(=O)n1CC2` [WX036], for which the clearance in data set [9] (setting [10]) is 70.3 mL/min/kg. In data set [9] (setting [10]), the half-life was 18 min. In [9] (oral administration 3 mg/kg), this molecule yielded a bioavailability of 7.5%. Besides, the IC50 in data set [4], in [6], in data set [7] and in data set [8] was 50 µM in each case.

Regarding `CCOc1cc2c(cc1OC)-c1c/c(=N\c3c(C)cc(C)cc3C)n(CCNC(=O)c3nnc[nH]3)c(=O)n1CCC2` [WX047], the half-inhibitory concentration (IC50) in data set [3] is 0.25 nM.

With `CCOc1cc2c(cc1OC)-c1c/c(=N\c3c(C)cc(C)cc3C)n(CCC(=O)Nc3nnc[nH]3)c(=O)n1CC2` [WX054], the concentration for half-maximal inhibition (IC50) in data set [3] is 1.8 nM.

(Values after US11993596B2, “Fused tri-cyclic compound as PDE3/PDE4 dual inhibitor” (CHIA TAI TIANQING PHARMACEUTICAL GROUP CO., LTD., priority 2018, dated 2024).)
